# Values of other authors in patent publication US8980874B2, “Method and composition for treating diabetic ketoacidosis” (Midwestern University, priority 2009, dated 2015).
# Tests used:
# [1] = system: rat model of embolic stroke; conditions: rat model of embolic stroke where rtPA was used; cited from earlier work
# BBB permeability = conditions: repeated intracisternal administration of ET-1 in dogs and rats; cited from earlier work
structure (smiles),measurement,setting,value
CC1(C)CC[C@]2(C(=O)[O-])CC[C@]3(COC(=O)/C=C/c4cc([O-])ccc4NC(=O)/C=C/C(=O)O)C(=CC[C@@H]4[C@@]5(C)CCC(=O)C(C)(C)[C@@H]5CC[C@]43C)[C@@H]2C1.[Na+].[Na+] [S-0139],neuroprotection / rtPA evoked disruption of BBB,[1],provided neuroprotection by suppressing rtPA evoked disruption of BBB
same,effect on ET-1 induced increase in BBB permeability,BBB permeability,blocked
